{"source": "patent US9745631B2", "about": "“Methods for diagnosing and treating oncogenic kras-associated cancer” (Dana-Farber Cancer Institute, Inc., priority 2011, dated 2017)", "format_in_all_cases": "cell-based, mouse", "key": {"[1]": {"system": "iKras p53L/+ cells", "test": "Western blot for phospho-Akt, phospho-Erk, phospho-S6 and Myc in inhibitor-treated cells", "conditions": "MEK inhibitor treatment (AZD8330 50 nM, 18 hr)", "procedure": "FIG. 42 is a photograph of a Western blot showing expression of phospho-Akt, phospho-Erk, phospho-S6, Myc, and Actin (loading control) in iKras p53L/+ cells treated with AZD8330 (50 nM), BKM120 (150 nM), or Rapamycin (20 nM) for 18 hours. As control, cells were cultured in the presence or absence of doxycycline for 24 hours.\nTissues were fixed in 10% formalin overnight and embedded in paraffin. Immunohistochemical analysis was performed as described (see, Aguirre et al. (2003) Genes Dev 17:3112-3126). The visualization of primary antibodies was performed with horseradish peroxidase system (Vectastain ABC kit, Vector Labs, Inc., Burlingame, Calif.). Images were captured using a Leica DM1400B microsystem and Leica FW4000 version 1.2.1. […]\nTo further dissect the downstream mechanism of Kras^G12D-mediated metabolic reprogramming, specific pharmacological inhibitors were used to examine the impact of effector pathways on tumor metabolism. iKras p53L/+ cells were treated with AZD8330 (50 nM), BKM120 (150 nM), or Rapamycin (20 nM) for 18 hr. In parallel, cells were cultured in the presence or absence of doxy for 24 hr to serve as controls and relative mRNA levels of indicated metabolism genes were measured by QPCR. […]"}, "[2]": {"system": "iKras p53L/+ cells", "test": "QPCR of metabolism genes in inhibitor-treated iKras p53L/+ cells", "conditions": "AZD8330 50 nM, 18 hr, FIG. 41", "procedure": "FIG. 41 is a bar graph showing the relative mRNA expression of the indicated genes in iKras p53L/+ cells treated with MEK inhibitor, AZD8330 (50 nM), BKM120 (150 nM), or Rapamycin (20 nM) for 18 hours. Error bars represent SD of the mean; *p<0.05; **p<0.01.\nTo further dissect the downstream mechanism of Kras^G12D-mediated metabolic reprogramming, specific pharmacological inhibitors were used to examine the impact of effector pathways on tumor metabolism. iKras p53L/+ cells were treated with AZD8330 (50 nM), BKM120 (150 nM), or Rapamycin (20 nM) for 18 hr. In parallel, cells were cultured in the presence or absence of doxy for 24 hr to serve as controls and relative mRNA levels of indicated metabolism genes were measured by QPCR. Some cell lysates were blotted for phospho-Akt, phospho-Erk, phospho-S6, and Myc. […] To gain further insight into the Kras^G12D-mediated transcriptional regulation that facilitates metabolic reprogramming, promoter analysis was performed on differentially expressed genes upon Kras^G12D inactivation."}, "[3]": {"system": "iKras p53L/+ cells", "test": "Steady-state metabolite levels by targeted LC-MS/MS in inhibitor-treated cells", "conditions": "18 hr", "procedure": "FIG. 43 is a bar graph showing the relative steady-state levels of the indicated metabolites measured by targeted LC-MS/MS, in iKras p53L/+ cells treated with AZD8330 (50 nM), BKM120 (150 nM), or Rapamycin (20 nM) for 18 hours. As control, cells were cultured in the presence or absence of doxycycline for 24 hours. Error bars represent SD of the mean. *p<0.05; **p<0.01.\nTwo independent iKras p53^L/+ tumor lines and one LSL-Kras p53^L/+ line were maintained in basal media in the presence or absence of doxycycline for 24 h. Fresh media was added 2 hours before the experiment. For metabolite collection, media from technical triplicates (in 10 cm dishes at ˜70% confluence) was fully aspirated and 4 mL of 80% (v/v) methanol was added at dry ice temperatures. Cells and the metabolite-containing supernatants were collected into conical tubes. Insoluble material in lysates was centrifuged at 2,000×g for 15 min, and the resulting supernatant was evaporated using a refrigerated speed vac. […] Ten microliters were injected and analyzed using a 5500 QTRAP hybrid triple quadrupole mass spectrometer (AB/SCIEX) coupled to a Prominence UFLC HPLC system (Shimadzu) via selected reaction monitoring (SRM) of a total of 254 endogenous water soluble metabolites for steady-state analyses of samples. […] Approximately 9-12 data points were acquired per detected metabolite. […]"}, "[4]": {"system": "iKras p53L/+ cells", "test": "GSH and GSSG levels normalized to cell number", "conditions": "0.5 mM BSO for 24 hours, FIG. 33", "procedure": "FIG. 33 is a bar graph quantifying the GSH and GSSG levels normalized to cell number in iKras p53L/+ cells or constitutive LSL-KrasG12D p53L/+ control cells (LSL-Kras) maintained in the presence or absence of doxycycline (Dox+/−) or treated with 0.5 mM BSO for 24 hours; statistical significance is indicated as follows: *: p<0.05.\nDoxycycline (Research Product International), BSO (Sigma), Ras activation assay kit (Millipore), G6PD activity assay kit (BioVision), GSH/GSSG-Glo™ assay kit (Promega, Madison, Wis.).\nTo explore this possibility in the context of Kras^G12D-driven PDAC, ^14C1- or ^14C6-labeled glucose was used to measure the production of CO2 from the oxidative PPP (^14C1—CO2) relative to that generated from the glycolysis-TCA cycle route (^14C6—CO2). Consistent with data showing that Kras^G12D de-induction exerts a minimal effect on TCA cycle intermediates (FIG. 18), no obvious change in the release of ^14C6—CO2 was observed upon doxycycline withdrawal (FIG. 32). More importantly, no significant decrease in the release of ^14C1—CO2 was detected (FIG. 32), indicating Kras^G12D extinction was not associated with decreased flux through the oxidative arm of the PPP."}, "[5]": {"system": "FASN", "test": "Relative expression of FASN after shRNA against FASN", "conditions": "iKras p53L/+ PDAC, FIG. 48", "from_the_text": "FIG. 48 is a bar graph quantifying the relative expression level of FASN in iKras p53L/+ PDAC infected with shRNA against GFP or FASN.\n(§1) Lentiviral shRNA clones targeting Gfpt1, RPIA, RPE, MYC, and FASN and nontargeting control construct shGFP were obtained from the RNAi Consortium at the Dana-Farber/Broad Institute. The clone IDs and nucleic acid sequences for the shRNAs are:\nAs shown in Example 4, above, extinction of iKras led to decreased expression of FASN. Thus, it was next determined whether FASN plays a role in tumorigenesis in PDAC tumor model. iKras p53L/+ PDAC were treated with shRNA against FASN or GFP (control). […] Thus, FASN was determined to play a role in tumorigenic activity of iKras p53L/+ PDAC cells."}, "[6]": {"system": "iKras p53L/+ PDAC cells", "test": "Clonogenic assay", "conditions": "shRNA against FASN, FIG. 49", "procedure": "FIG. 38 is a bar graph quantifying the clonogenic activity, expressed as colony number, in iKras p53L/+ cells maintained under high (11 mM) or low (1 mM) glucose, determined for cells infected with shRNA against GFP, RPIA, RPE, or RPIA+RPE; statistical significance is indicated as follows: *: p<0.05; **: p<0.01.\nFIG. 49 is a bar graph quantifying the colony numbers in a clonogenic assay for iKras p53L/+ PDAC cells infected with shRNA against GFP or FASN.\n400 cells were seeded into each well of 6-well plate in duplicate and colonies were stained 7-10 days later with 0.2% crystal violet in 80% methanol."}, "[7]": {"system": "Gfpt1", "test": "Western blot for O-GlcNAc after shRNA knockdown of Gfpt1", "conditions": "shRNA against Gfpt1, FIG. 25", "procedure": "FIG. 25 is a photograph of a Western blot analysis for O-GlcNAc and Gfpt1 levels in KrasG12D p53L/+ cells infected with shRNA against GFP or Gfpt1. For control samples, MEFs were cultured in the presence or absence of glucose (Glc+, Glc−) for 24 hours. Actin was used as a loading control.\nTissues were fixed in 10% formalin overnight and embedded in paraffin. Immunohistochemical analysis was performed as described (see, Aguirre et al. (2003) Genes Dev 17:3112-3126). The visualization of primary antibodies was performed with horseradish peroxidase system (Vectastain ABC kit, Vector Labs, Inc., Burlingame, Calif.). Images were captured using a Leica DM1400B microsystem and Leica FW4000 version 1.2.1. The primary antibodies used for immunohistochemistry or Western blot were: SMA (NB600-531, Novus Biologicals®, Littleton, Colo.), BrdU (ab1293, Abcam, Cambridge, Mass.), cleaved-Caspase3 (9664, Cell Signaling, Danvers, Mass.), phosphor-Akt (4060, Cell Signaling), phospho-Erk (4376, Cell Signaling), phospho-S6 (4858, Cell Signaling), Actin (sc-1615, Santa Cruz, Santa Cruz, Calif.), Ras (05-516, Millipore, Billerica, Mass.), O-GlcNAc (ab2739, Abcam). Gfpt1 antibody was a kind gift from Immuno-Biological Laboratories Co., Gunma, Japan.\nas §1\nLentiviruses were produced in 293T cells with packing mix (ViraPower Lentiviral Expression System, Invitrogen, Carlsbad, Calif.) as per manufacturer's instruction. 293T cell supernatant containing the shRNA lentivirus was collected, filtered through 0.45 μm filter, and added to target iKras cells in the presence of 8 μg/ml polybrene.\nTo further substantiate the essentiality of Kras^G12D-mediated control of protein glycosylation, the impact of shRNA-mediated knockdown of Gfpt1 was assessed. […]"}}}
{"molecule": "Cc1cc(C(=O)NOCCO)c(Nc2ccc(I)cc2F)n(C)c1=O", "note": "[AZD8330]", "values": [{"measurement": "Myc protein level", "setting": "[1]", "result": "decreased"}, {"measurement": "expression of glycolytic genes (Glut1, Hk1, Eno1, Ldha), HBP gene (Gfpt1) and nonoxidative PPP gene (Rpia), relative mRNA", "setting": "[2]", "result": "significantly decreased"}, {"measurement": "metabolite changes in the glycolysis, HBP and nonoxidative PPP pathways", "setting": "[3]; AZD8330 50 nM, FIG. 43", "result": "recapitulated the Kras^G12D inactivation induced metabolite changes"}]}
{"molecule": "Nc1cc(C(F)(F)F)c(-c2cc(N3CCOCC3)nc(N3CCOCC3)n2)cn1", "note": "[BKM120]", "values": [{"measurement": "impact on iKras-directed tumor metabolism", "setting": "[3]; BKM120 150 nM, FIGS. 41, 42 and 43", "result": "did not exhibit a significant impact"}]}
{"molecule": "CCCCS(=N)(=O)CCC(N)C(=O)O", "note": "(stereo not shown) [BSO, buthionine sulfoximine]", "values": [{"measurement": "ratio of GSH/GSSG", "setting": "[4]", "result": "dramatically reduced"}]}
{"molecule": "FASN shRNA1: lentiviral shRNA clone targeting FASN, GCTGGTCGTTTCTCCATTAAA (SEQ ID NO: 172)", "values": [{"measurement": "FASN expression", "setting": "[5]", "result": "marked decrease"}, {"measurement": "colony formation", "setting": "[6]", "result": "marked decrease"}]}
{"molecule": "shRNA4: lentiviral shRNA clone targeting FASN, CGTCTATACCACTGCTTACTA (SEQ ID NO: 175)", "values": [{"measurement": "FASN expression", "setting": "[5]", "result": "marked decrease"}, {"measurement": "colony formation", "setting": "[6]", "result": "marked decrease"}]}
{"molecule": "shRNA #1: lentiviral shRNA clone targeting Gfpt1, CCTGAAACTTAAGACAGTTAA (SEQ ID NO: 165)", "values": [{"measurement": "overall O-linked glycosylation (O-GlcNAc)", "setting": "[7]", "result": "reduced"}]}
{"molecule": "shRNA #2: lentiviral shRNA clone targeting Gfpt1, CGTCTCTCTATCCACCGAATT (SEQ ID NO: 166)", "values": [{"measurement": "overall O-linked glycosylation (O-GlcNAc)", "setting": "[7]", "result": "failed to affect glycosylation"}]}
{"molecule": "shRNA #3: lentiviral shRNA clone targeting Gfpt1, CAGGGCATTCTCAGTGTGATT (SEQ ID NO: 167)", "values": [{"measurement": "overall O-linked glycosylation (O-GlcNAc)", "setting": "[7]", "result": "reduced"}]}
{"molecule": "shRNAS: lentiviral shRNA clone targeting FASN, GCTGCGGAAACTTCAGGAAAT (SEQ ID NO: 176)", "values": [{"measurement": "colony formation", "setting": "[6]", "result": "to some extent"}]}
